We go through 1 compound from patent publication US20110166107A1, “METHODS AND KITS FOR DETECTING RISK FACTORS FOR DEVELOPMENT OF JAW OSTEONECROSIS AND METHODS OF TREATMENT THEREOF” (UNIVERSITY OF FLORIDA RESEARCH FOUNDATION INC., priority 2008, published 2011).

The data set in a line: Chart review of BONJ incidence in patients treated with bisphosphonates (UF / VAMC). In kind it is in vivo, human. As to conditions: outpatient bone marrow transplant clinic, all patients had myeloma; pamidronate only (total incidence 13%). The source says:
Medical and dental charts at the University of Florida (UF) and the associated Veterans Administration Medical Center (VAMC) were reviewed. […] There were 21 males. […] Fourteen patients had modest increases in their serum creatinine concentrations. The average number of previous chemo/radiotherapy regimens was 3.5. Nine patients had Thalidomide, 5 had Bortizomib. Primary disease status was as follows: 12 patients in clinical remission, 5 with stable disease and 10 with progressive disease. Eight patients received statin therapy and 6 had diabetes mellitus. The median length of treatment with BP before the diagnosis of BONJ was 28 months. BONJ involved the mandible in 21 patients, maxilla in 4 and both in 2 patients. The most frequent presentation was pain, swelling, and exposed bone (FIG. 1). […] The BONJ incidence differed among the 3 centers where these patients were treated. […] The incidence in the VAMC was 4.2% while the incidence in the Cancer Center clinic at UF was 1.7%. In the latter two groups, patients had mostly solid tumors. The results described herein are consistent with the reports of increased incidence of BONJ with greater duration of therapy and that myeloma patients are more likely to develop the complication than solid tumor patients.

In turn, `NCCC(O)(P(=O)(O)O)P(=O)(O)O` [pamidronate] yielded a BONJ incidence of 4%.
